pIC50: −log10 of the molar value. Where a name gives a salt, the structure may show the parent alone.
Tested on: OSW cell line
Experiment: In vitro chemosensitivity (WST-1 cytotoxicity and proliferation assay)
Type: cell-based
Conditions: Canis lupus familiaris; OSW canine T-cell lymphoma cell line, 72 h treatment, WST-1 assay; read-out: inhibitory concentration 50% (IC50)
Procedure: 1-2×10^4 cells were seeded in 96-well plates in quadruplicates to a final volume of 200 μL/well. Cells were treated with doxorubicin hydrochloride (Ben Venue Laboratories-Novation, Bedford, Ohio, USA) or vincristine sulfate (Mayne Pharma Pty Ltd., Mulgrave VIC, Australia) at varying concentrations of drug or vehicle control for 72 h. Cell proliferation and viability was determined using the WST-1 assay, which quantifies the reduction of the tetrazolium salt WST-1 by mitochondria in viable cells. Cell number was determined from absorbance values of known numbers of cells. At various time intervals, 20 μl of WST-1 reagent (Roche, Indianapolis, Ind., USA) was added to each well and incubated for 2 to 4 h at 37° C. The absorbance of the reaction product, after background subtraction, was measured at 450 nm on a Spectra Max M2 plate reader (Molecular Devices, Sunnyvale, Calif., USA). Each experiment was repeated at least three times.
The in vitro chemosensitivity of the OSW cell line to doxorubicin and vincristine was determined.

SMILES: COc1cccc2c1C(=O)c1c(O)c3c(c(O)c1C2=O)C[C@@](O)(C(=O)CO)C[C@@H]3O[C@H]1C[C@H](N)[C@H](O)[C@H](C)O1 [Doxorubicin, doxorubicin hydrochloride]
- pIC50: 6.30

SMILES: CC[C@]1(O)C[C@H]2CN(CCc3c([nH]c4ccccc34)[C@@](C(=O)OC)(c3cc4c(cc3OC)N(C=O)[C@H]3[C@@](O)(C(=O)OC)[C@H](OC(C)=O)[C@]5(CC)C=CCN6CC[C@]43[C@@H]65)C2)C1 [vincristine, vincristine sulfate]
- pIC50: 6.40

Source: patent publication US7897150B1, “Canine lymphoma cell line and uses thereof” (The Ohio State University, priority 2007, dated 2011)
